{"source": "paper PMC11460631", "about": "“Inhibition of transient receptor potential vanilloid 3 channels by antimalarial hydroxychloroquine alleviates TRPV3-dependent dermatitis” (The Journal of Biological Chemistry, 2024)", "key": {"[1]": {"molecular_target": "T1, TRPV3 N671Q mutant (Homo sapiens, UniProt Q8NET8, N671Q)", "T1 construct": "YFP or GFP; expressed in transfected cells; host or cells: HEK293T", "T1 sequence (Q8NET8 1-790 N671Q)": "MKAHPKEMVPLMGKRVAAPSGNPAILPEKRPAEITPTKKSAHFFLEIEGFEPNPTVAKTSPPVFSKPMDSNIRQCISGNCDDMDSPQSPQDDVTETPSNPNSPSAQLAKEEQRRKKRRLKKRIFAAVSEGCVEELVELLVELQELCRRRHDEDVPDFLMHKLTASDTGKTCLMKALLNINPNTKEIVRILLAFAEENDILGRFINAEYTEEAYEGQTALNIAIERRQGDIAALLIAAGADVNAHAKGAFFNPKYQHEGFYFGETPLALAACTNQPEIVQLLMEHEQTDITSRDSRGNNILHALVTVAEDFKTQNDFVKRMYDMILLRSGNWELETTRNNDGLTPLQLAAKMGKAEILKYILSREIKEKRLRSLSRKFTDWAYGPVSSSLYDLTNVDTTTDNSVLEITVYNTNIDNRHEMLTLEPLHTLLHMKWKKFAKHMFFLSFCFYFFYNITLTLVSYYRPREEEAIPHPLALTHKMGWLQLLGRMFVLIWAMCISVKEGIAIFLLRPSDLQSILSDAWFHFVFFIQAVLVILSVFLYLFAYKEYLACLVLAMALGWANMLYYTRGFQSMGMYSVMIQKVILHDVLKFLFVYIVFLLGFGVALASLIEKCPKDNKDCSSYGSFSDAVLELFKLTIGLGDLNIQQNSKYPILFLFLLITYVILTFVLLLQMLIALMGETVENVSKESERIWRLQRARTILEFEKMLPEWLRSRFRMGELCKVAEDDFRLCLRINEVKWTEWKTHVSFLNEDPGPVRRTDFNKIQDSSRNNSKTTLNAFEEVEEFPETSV", "test": "Whole-cell recording of TRPV3 N671Q mutant", "format": "cell-based", "source_text": "(§1) As we mentioned above, HCQ may act as a pore blocker of TRPV3. To probe the binding configuration of HCQ to TRPV3, we carried out molecular docking using Rosetta suite (https://rosettacommons.org) ([21]) and validated the docking models with point mutations in TRPV3 (Fig. 4A). […] Furthermore, when we introduced L670A to L591A mutant, we also observed a left shift on the concentration–response curve on this double mutant as compared to L591A mutant (Fig. 4H).\n(§2) Figure 4 Residues of the pore domain are critical for HCQ inhibition on TRPV3.A, left panel, docking model of HCQ to the pore domain of TRPV3 structure (6uw4). Right panels, top view and side view of the HCQ-binding pocket. B-J, representative whole-cell recording of TRPV3 and mutants in response to 1 mM 2-APB, the mixture of 1 mM 2-APB and concentration gradients of HCQ with the holding potential of ± 80 mV. K, concentration–response curves of HCQ in WT TRPV3 and mutants (n = 3–5 cells). L, quantification of the inhibitory ratio of HCQ (100 μM) on WT, L591A, and N671Q. […]\n(§3) All data from whole-cell recordings were analyzed in Igor Pro (WaveMetrics). IC50 values were determined by fitting the Hill equation to concentration-response relationships. […]"}, "[2]": {"molecular_target": "T2, TRPV3 Y594 alanine mutation (Homo sapiens, UniProt Q8NET8, Y594A)", "T2 construct": "YFP or GFP; expressed in transfected cells; host or cells: HEK293T", "T2 sequence (Q8NET8 1-790 Y594A)": "T1 sequence (Q8NET8 1-790 N671Q) with Y594A, Q671N", "test": "Whole-cell recording of TRPV3 Y594 alanine mutant", "format": "cell-based", "details": "1 mM 2-APB, ± 80 mV", "source_text": "as §1, §2, §3"}}, "note": "Substitutions are numbered along the chain they refer to."}
{"smiles": "CCN(CCO)CCCC(C)Nc1ccnc2cc(Cl)ccc12", "note": "(stereo not drawn) [HCQ, hydroxychloroquine]", "values": [{"measurement": "inhibition at 100 µM", "setting": "[1]; 100 μM HCQ", "result": 27.8, "unit": "%"}, {"measurement": "IC50", "setting": "[1]; 1 mM 2-APB, ± 80 mV", "result": "133 ± 8.6", "unit": "µM"}, {"measurement": "IC50", "setting": "[2]", "result": "1.57 ± 0.08", "unit": "µM"}]}
